Residues, ends and D or L forms follow the SMILES beside them. *: point of attachment. pNA = O=[N+]([O-])c1ccc(N*)cc1
Legend:
Candida tropicalis = assay: Tests on substrates against Candida tropicalis, colour reading on buffered gelose; assay type: cell-based
C. krusei = assay: Diagnosis from isolated colonies on gelose 2/5; assay type: cell-based, Candida krusei
Procedure: According to the afore-mentioned best mode of carrying out the invention, a culture medium containing the following ingredients is prepared; it is called gelose 2 below and is buffered to pH 6.0.
According to the afore-mentioned best mode of carrying out the invention, a culture medium containing the following ingredients is prepared; it is called gelose 5 below and is buffered to pH 6.0.
Several isolated strains of C. albicans, C. tropicalis, C. krusei, C. guillermondii, C. pseudotropicalis, C. parapsilosis, C. zeylanoides, T. glabrata and Trichosporon cutaneum were inoculated and incubated on the media of Examples 1 to 5. […] Part of the results obtained has been collated in Table VI below, where the TTC column relates to results of tests undertaken separately on a standard gelose medium containing TTC.
Several isolated strains of C. albicans, C. tropicalis, C. krusei, C. guillermondii and T. glabrata were inoculated and incubated on the media of Example 2 [containing either the substrate N-Ac-β-D-galactosaminide-PNP of the prior art, or the substrates H-L-PropNA.AcOH (specific for C. albicans), EM-L-Phg-L-ArgpNA.AcOH (specific for T. glabrata) and H-Gly-L-Pro-L-Arg-pNA.2AcOH (specific for C. krusei)]and of Example 5 (containing the substrate H-L-Pro-pNA.AcOH).

T. glabrata [1] = assay: Tests on substrates against T. glabrata, colour reading on buffered gelose; assay type: cell-based, Torulopsis glabrata; conditions: pH 6; note: key: -: none; +: weak; ++: moderate; +++: intense; ++++: very intense
Candida albicans = assay: Tests on substrates against Candida albicans, colour reading on buffered gelose; assay type: cell-based; conditions: Table I; medium pH 6.0, YNB, glucose, agar, gentamycin; coloration or fluorescence
C. tropicalis = assay: Diagnosis from isolated colonies on gelose 2/5; assay type: cell-based, Candida tropicalis
Candida krusei = assay: Tests on substrates against Candida krusei, colour reading on buffered gelose; assay type: cell-based; for Reading at 24 h: key: -: none; +: weak; ++: moderate; +++: intense; ++++: very intense
C. albicans = assay: Diagnosis from isolated colonies on gelose 2/5; assay type: cell-based, Candida albicans; note: key: -: none; +: weak; ++: moderate; +++: intense; ++++: very intense
T. glabrata [2] = assay: Diagnosis from isolated colonies on gelose 2/5; assay type: cell-based, Torulopsis glabrata; note: key: -: none; +: weak; ++: moderate; +++: intense; ++++: very intense
[3] = test system: isolated strains of Candida albicans, Candida guillermondii, Candida intermedia, Candida parapsilosis, Candida pseudotropicalis, Candida stellatoidea, Candida …; conditions: YEAST-IDENT, liquid medium, 4 h at 37° C.; cited from earlier work

SMILES	Specificity: interference with C. tropicalis (Candida tropicalis; Table I)	Reading at 24 h (Candida tropicalis; Table II, medium pH 6.0, YNB, glucose, agar, gentamycin)	C. TROPICALIS reading at 24 h (Candida tropicalis; Table III, medium pH 6.0)	Specificity: interference with C. tropicalis (Candida tropicalis; Table IV)	Reading at t = 24 h (C. krusei)	T. GLABRATA reading at 24 h (T. glabrata [1])	Reading at 24 h (Candida albicans)	Reading at t = 24 h (C. tropicalis)	Specificity: interference with C. krusei (Candida krusei; Table I)	Reading at 24 h (Candida krusei; Table IV, medium pH 6.0)	Reading at t = 24 h (C. albicans)	Reading at t = 24 h (T. glabrata [2])	reaction with isolated strains [3]
N=C(N)NCCC[C@H](NC(=O)[C@@H]1CCCN1C(=O)CN)C(=O)Nc1ccc([N+](=O)[O-])cc1 [H-Gly-L-Pro-L-Arg-pNA.2AcOH] (H-Gly-Pro-Arg-pNA)	(b)	++++	++++	(a)	+++	-	++++	++	(c)	++++	-	-	
O=C(Nc1ccc2ccccc2c1)[C@@H]1CCCN1 [H-L-Pro-NA]													positive reaction

From US5449612A, “Process for identifying candida by means of chromogenic substances” (Serbio, priority 1990, dated 1995)
